Experiment [1] has as its target T1, MCT1 (Rattus norvegicus, UniProt P53987).
T1 sequence (P53987 1-494): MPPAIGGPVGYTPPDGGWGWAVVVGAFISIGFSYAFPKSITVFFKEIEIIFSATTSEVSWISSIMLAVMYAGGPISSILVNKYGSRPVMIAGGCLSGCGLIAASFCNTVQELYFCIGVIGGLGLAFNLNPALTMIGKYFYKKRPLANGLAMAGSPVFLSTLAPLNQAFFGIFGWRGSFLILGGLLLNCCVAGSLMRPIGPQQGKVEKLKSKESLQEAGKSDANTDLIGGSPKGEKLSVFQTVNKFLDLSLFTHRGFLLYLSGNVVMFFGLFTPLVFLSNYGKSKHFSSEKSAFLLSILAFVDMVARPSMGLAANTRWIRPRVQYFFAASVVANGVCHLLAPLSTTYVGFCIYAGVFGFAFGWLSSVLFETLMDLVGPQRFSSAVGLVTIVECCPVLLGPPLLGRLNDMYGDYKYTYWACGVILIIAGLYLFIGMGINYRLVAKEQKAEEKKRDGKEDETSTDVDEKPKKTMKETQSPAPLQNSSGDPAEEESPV
Format: cell-based. The conditions noted are these: read-out: % inhibition (irreversible) at 0.2 mM.

For experiment [2], the target named is T1, MCT1. Put plainly: inhibition of L-[…]lactate uptake in Xenopus oocytes, DIDS present in assay. The experiment is classed as cell-based. The conditions noted are these: read-out: % inhibition (reversible) at 0.2 mM.

Each structure is given as a SMILES string. Where two headings read alike, the source gives them in different places.

Take `O=S(=O)(O)c1cc(N=C=S)ccc1/C=C/c1ccc(N=C=S)cc1S(=O)(=O)O` [DIDS]: the inhibition at 200 µM on MCT1 [1] and on MCT1 [2] was roughly 60% throughout.

For the origin of these results see PMC2740427 (The Journal of Biological Chemistry, 2009).
